Values joined by “and” are separate entries in the source; they are usually repeats but may differ in a detail not shown here. Equal entries are not always repeated.
Columns and labels:
rBAT = experiment: HAT heavy chain rBAT on large-monocyte fraction of LPS-stimulated human PBMC, peak value by FACScan; assay type: cell-based; settings: human PBMC + LPS 80 μg/ml, 6-day culture; test compound 100 nM; solvent control 37
Method: (§1) In the same manner as in 1) to 5) of Experimental Example 1, to human peripheral blood mononuclear cells, the test compound (6-2) (final concentration: 10 nM) or the test compound (7-3) (final concentration: 100 nM) was added at the same time when LPS (final concentration: 80 μg/ml) was added, followed by 6-day culture. Further, in the same manner as above, using rabbit anti-human 4F2hc polyclonal antibodies (see Biol Pharm Bull 30:415-422, 2007) as a primary antibody, the peak value of HAT expressed on the fraction of large-macrophages (larger than monocyte macrophages) in human PBMC was measured by FACScan using a commercially available cell fix/cell membrane infiltration kit (trade name: BD Cytofix/Cytoperm™ Kit, catalog No. 554714, BD Biosciences).
(§2) As a control, the one with no test-compound addition was used, and as a rabbit anti-human rBAT (related to b^0,+-type amino acid transporter) polyclonal antibody, the one obtained by coupling a synthesized peptide composed of an amino-terminal of human rBAT (MAEDKSKRDSIEMSMKGC (SEQ ID NO: 2)) and a carboxyl-terminal of mouse b^0,+AT (BAT1) (CHLQMLEWPEKDPE (SEQ ID NO: 3)) to a carrier KLH (keyhole-limpet hemocyanin), and immunizing a rabbit with it.

FRP-1/CD98/4F2hc = experiment: FACScan of FRP-1/CD98/4F2hc expression on macrophage fraction of LPS-stimulated human PBMC (monoclonal antibodies 4-5-1, 6-1-3, HBJ-127); assay type: cell-based
[1] = system: rat unilateral ureteral obstruction release model; experiment: Rat unilateral ureteral obstruction release model: glomerular and tubulointerstitial lesions, Asc-1+ cells; assay type: in vivo, SD rat;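 for Tubulointerstitial lesion: atrophy of tubules associated with dilatation of tubules (score): ± very light + light ++ moderate +++ high change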;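 for Tubulointerstitial lesion: fibrosis of interstitial tissue (score): ± very light + light ++ moderate +++ high change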;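 for Tubulointerstitial lesion: thickness of basement membrane (score): ± very light + light ++ moderate +++ high change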
From the text: An experimental model was produced in accordance with the method devised and established by Ishibashi (Michio Ishibasi et al., Japanese Journal of Nephrology 42: 248, 2000), using a 8 to 9-week-old male SD rat weighing about 280 g. […] On day 14 after obstruction, the obstruction was released, and the urinary tract was reconstructed using a cuff. That is, 14 days later, the ligated ureteral obstruction part was partially removed, and a 25 gauge polyethylene tube (made by Nippon Sherwood) as a cuff was inserted from the lower normal ureteral stump and placed in the lumen. Next, the cuff was placed also in the expanded upper ureter, and both parts were ligated for fixation with a 7-0 nylon suture to reconstruct the urinary tract. At the same time, the right kidney was removed. The weight was measured after obstruction release, and the blood was collected on days 2, 5, and 7 after release for serum creatinine determination. On day 7, the rat was sacrificed under anesthesia and the left obstruction release kidney was removed. The weight of the removed kidney was measured, and the kidney pathomorphological examination was performed.
The biological effects of the test compound were studied in vivo using the model obtained in the above procedure 1). The test compound in the form of bulk powder was dissolved in sterilized physiologic saline together with gum arabic, where the concentration of the gum arabic was adjusted to 5% and the concentration of the test compound was adjusted to 30 mg/ml. The amount of 30 mg/kg was subcutaneously administered every day. Daily administration was continued for 21 days during 14 days of obstruction and 7 days after obstruction release. For controlled comparison, the solvent of 5% gum arabic was administered alone.
On day 22 from the administration of the test compound, the rat was sacrificed under anesthesia, and the left obstruction release kidney was removed and neutral formalin fixed. The fixed renal tissue embedded in paraffin was sliced into 4-micrometer-thick pieces for examination.
The tissue section was observed under a microscope in order to count the number of glomeruli and the number of glomeruli having a lesion (expansion of a tubular pole associated with swollen Bowman's capsule epithelial cells or hypertrophy of a Bowman's capsule basal membrane) in the field of view, and the number of glomeruli having the lesion (referred to as “lesioned glomerulus”) per 50 glomeruli was calculated.
As for the effectiveness to improve of glomerular lesions, when the number of lesioned glomeruli per 50 glomeruli was reduced to less than or equal to half the average number of those of the control group, it was determined as improved.
An affinity-purified anti-rat Asc-1 polyclonal antibody (rabbit) was prepared as follows: that is, in order to prepare an anti-Asc-1 peptide polyclonal antibody (rabbit), an oligopeptide (PSPLPITDKPLKTQC (SEQ. ID NO: 4)) corresponding to amino acid residues of 517-530 of Asc-1 was synthesized (see J Biol Chem (2000); 275: 9690-9698), keyhole limpet hemocyanine was bound to the C-terminal cysteine as an adjuvant, and […] was immunized therewith. The serum was collected on days 7 and 14 from the immunization. The serum was concentrated by means of an adsorption-dissociation operation using an affinity column to which an oligopeptide corresponding to amino acid residues of 517-530 of Asc-1 was bound in order to obtain an affinity-purified antibody having a protein content of 0.5 mg/ml. As for immunopathological examination, paraffin rat […] diluted with PBS to the optimal concentration was used.
The immune tissue staining was performed based on the protocol of Ventana HX system bench mark (Ventana Japan K.K., Tokyo) including the automated immunostaining device manufactured by Ventana Japan K.K. After deparaffinization, the tissue section was heat-treated at 100° C. for 1 hour. […]

4F2hc [2] = experiment: 4F2hc on large-cell fraction of LPS-stimulated THP-1, peak value by FACScan; assay type: cell-based, human
Method: The same procedures as in Experimental Example 2 were taken except the following conditions: human leukemia culture cell line THP-1 was used instead of the human peripheral blood mononuclear cells; the final addition concentration of the test compound (6-2) was set to 100 nM, and the final addition concentration of the test compound (7-3) was set to 1000 nM; and fetal bovine serum was used instead of the human AB serum. The peak value of HAT expressed on the fraction of large-cells in human leukemia culture cell strain THP-1, compared with those not stimulated with LPS, was measured. As a control, the one with no test-compound addition was used, and the peak value of HAT was measured by FACScan using a commercially available cell fix/cell membrane infiltration kit (trade name: BD Cytofix/Cytopem™ Kit, catalog No. 554714, BD Bioscience).

4F2hc [3] = experiment: HAT heavy chain 4F2hc on large-monocyte fraction of LPS-stimulated human PBMC, peak value by FACScan (polyclonal antibody); assay type: cell-based
Method: as §1, §2

[4] = system: glomerular lesions; renal tubulointerstitial lesions; settings: International Publication WO 2004/024185 and 01/72730 pamphlets; cited from earlier work
[5] = human PBMC + LPS 80 μg/ml, 6-day culture, test compound 100 nM
[6] = group average ± standard deviation
[7] = individual animal, 30 mg/kg s.c. daily for 21 days, 30 mg/kg
[8] = individual animal, points: ± 0.5, + 1, ++ 2, +++ 3

Compound: O=C1OC(Cl)(C(=O)OCc2ccccc2)c2ccccc21 (stereo not drawn) [Compound (7-3)]
- Change in HAT expressed on large-monocyte fraction of human PBMC (peak value by FACScan), rBAT (rBAT): 38
- Migration of FRP-1/CD98/4F2hc expression of macrophage fraction by FACScan (migration rate %), monoclonal antibody 4-5-1 (FRP-1) (FRP-1/CD98/4F2hc; [5]): 2.6%
- Migration of FRP-1/CD98/4F2hc expression of macrophage fraction by FACScan (migration rate %), monoclonal antibody 6-1-3 (FRP-1) (FRP-1/CD98/4F2hc; [5]): 2.0%
- Migration of FRP-1/CD98/4F2hc expression of macrophage fraction by FACScan (migration rate %), monoclonal antibody HBJ-127 (CD98) (FRP-1/CD98/4F2hc; [5]): 5.4%
- expression of FRP-1/CD98/4F2hc on macrophage fraction of human PBMC (in words) (FRP-1/CD98/4F2hc; stimulated and cultured with LPS, summary of Table 1): did not increase the expression
- amelioration / reduction of tubulointerstitial lesions, rats of the group ([1]; control group: one rat out of four): all of four rats
- Glomerular lesion: number of lesioned glomeruli per 50 glomeruli, expansion of tubular pole associated with swollen Bowman's capsule epithelial cells [1, 6]: 5 ± 3 per 50 glomeruli
- Glomerular lesion: number of lesioned glomeruli per 50 glomeruli, hypertrophy of Bowman's capsule basal membrane [1, 6]: 14 ± 5 per 50 glomeruli
- Number of Asc-1+ cells per 50 glomeruli [1, 6]: 0.90 ± 0.47 per 50 glomeruli
- Tubulointerstitial lesion: atrophy of tubules associated with dilatation of tubules (score) [1, 6]: 0.50 ± 0.4
- Tubulointerstitial lesion: fibrosis of interstitial tissue (score) [1, 6]: 0.5 ± 0
- Tubulointerstitial lesion: thickness of basement membrane (score) [1, 6]: 0.4 ± 0.3
- Tubulointerstitial lesion: total score [1, 6]: 1.4 ± 0.6
- Glomerular lesion: number of lesioned glomeruli per 50 glomeruli, expansion of tubular pole associated with swollen Bowman's capsule epithelial cells [1, 7]: 9 per 50 glomeruli and 1 per 50 glomeruli and 6 per 50 glomeruli and 4 per 50 glomeruli
- Glomerular lesion: number of lesioned glomeruli per 50 glomeruli, hypertrophy of Bowman's capsule basal membrane [1, 7]: 20 per 50 glomeruli and 10 per 50 glomeruli and 16 per 50 glomeruli and 11 per 50 glomeruli
- Number of Asc-1+ cells per 50 glomeruli [1, 7]: 1.35 per 50 glomeruli and 0.47 per 50 glomeruli and 1.27 per 50 glomeruli and 0.53 per 50 glomeruli
- Improvement of glomerular lesion ([1]; individual animal, Yes = lesioned glomeruli per 50 glomeruli reduced to less than or equal to half the control average): No (2×) and Yes (2×)
- Tubulointerstitial lesion: atrophy of tubules associated with dilatation of tubules (score) [1, 8]: 0.5 (2×) and 0 and 1
- Tubulointerstitial lesion: fibrosis of interstitial tissue (score) [1, 8]: 0.5
- Tubulointerstitial lesion: thickness of basement membrane (score) [1, 8]: 0.5 (3×) and 0
- Tubulointerstitial lesion: total score ([1]; individual animal, sum of the three scores): 1.5 (2×) and 0.5 and 2
- Asc-1 positive cells in the glomeruli (in words) ([1]; versus control group): only a small number
- Change in HAT expressed on large-cell fraction of THP-1 (peak value by FACScan), 4F2hc (4F2hc [2]; THP-1 + LPS 80 μg/ml, fetal bovine serum, test compound 1000 nM, solvent control 12): 11
- amount of 4F2hc in the heavy chain of HAT (in words) (4F2hc [2]; THP-1 + LPS, summary of Table 3): did not make any change
- Change in HAT expressed on large-monocyte fraction of human PBMC (peak value by FACScan), 4F2hc (4F2hc [3]; human PBMC + LPS 80 μg/ml, 6-day culture, test compound 100 nM, solvent control 23): 20
- amount of 4F2hc in the heavy chain of HAT (in words) (4F2hc [3]; human PBMC + LPS, summary of Table 2): did not show any effects
- known action on renal tubulointerstitial lesions [4]: selectively inhibit the renal tubulointerstitial lesions

Source: patent publication US20090041719A1, “Method for screening therapeutic agent for glomerular disorder” (priority 2006, published 2009)
